According to patent US11957699B2, “Composition comprising punicalagin for inhibiting PAR2 activity” (INDUSTRY-ACADEMIC COOPERATION FOUNDATION, YONSEI UNIVERSITY, priority 2018, dated 2024):

Legend:
[1] = system: carbonic anhydrase; conditions: cited from earlier work
[2] = system: ICR mice with atopic dermatitis induced by DNFB; assay: Atopic dermatitis and pruritus induced by DNFB in mice; format: in vivo; conditions: 3 mg/kg intraperitoneally daily
Experimental: In 12-week-old ICR mice, it was confirmed whether punicalagin inhibits pruritus caused by atopic dermatitis induced by 1-fluoro-2,4-dinitrobenzene (DNFB).
Specifically, as shown in panel A of FIG. 19, punicalagin (PG) was dissolved in physiological saline and intraperitoneally injected at 3 mg/kg daily for 17 days, and atopic dermatitis and pruritus were induced by treating 0.15% DNFB dissolved in acetone with a cotton swab on the back of the mice on the 10th, 13th, 20th, and 27th days.

[3] = rats, 6% punicalagin diet for 37 days; cited from earlier work
[4] = target: T1, PAR2 (Homo sapiens, UniProt P55085); assay: Specificity: intracellular calcium increase by trypsin, PAR1-AP, thrombin and ATP in HT-29 cells; format: cell-based; set-up: endogenous in cells; host or cells: HT-29 colon cancer cells
T1 sequence (P55085 26-397): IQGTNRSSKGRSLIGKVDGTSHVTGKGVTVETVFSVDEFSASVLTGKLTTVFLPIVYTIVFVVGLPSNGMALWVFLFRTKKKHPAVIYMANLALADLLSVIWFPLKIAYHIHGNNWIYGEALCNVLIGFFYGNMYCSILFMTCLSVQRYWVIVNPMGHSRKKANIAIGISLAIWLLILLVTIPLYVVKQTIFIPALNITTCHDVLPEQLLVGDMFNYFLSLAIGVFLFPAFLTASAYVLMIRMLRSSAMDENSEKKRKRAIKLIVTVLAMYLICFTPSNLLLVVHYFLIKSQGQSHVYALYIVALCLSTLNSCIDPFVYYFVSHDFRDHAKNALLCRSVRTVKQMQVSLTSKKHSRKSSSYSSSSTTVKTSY
Experimental: After colon cancer cells (HT-29) were cultured for 48 hours in a 96-well micro plate with the RPMI1640 culture medium, the culture medium was removed, and then, 100 μL of the Flou4-NW dye mixture was added. While blocking the light, it was stabilized for 1 hour such that a calcium ion dye (Ca^2+ dye) was loaded into the cells. Next, punicalagin was pretreated by concentration (0, 0.3, 1, 3, 10, 30, and 100 μM) for 10 minutes, and by treating 100 nM trypsin, it was measured for about 70 seconds at 1-second intervals to determine whether the concentration changes of intracellular calcium ions by PAR2 activation were an inhibitory effect by punicalagin (panel A of FIG. 2). In the same manner as the above, after punicalagin was pretreated by concentration (0, 1, 3, 10, 30, 100, and 300 μM), by treating 100 μM PAR1-AP (panel B of FIG. 2), 10 unit/mL thrombin (panel C of FIG. 2), and 100 μM ATP (panel D of FIG. 2), the concentration changes in intracellular calcium ions were measured for 70 seconds at 1-second intervals in each case.
In addition, it was compared how much it inhibited an increase in the concentration of intracellular calcium ions by trypsin, PAR1-AP, PAR2-AP, thrombin, and ATP depending on the concentration of punicalagin.

[5] = system: SD rats with colitis induced by TNBS; assay: Colitis induced by trinitrobenzene sulfonic acid (TNBS) in rats; format: in vivo; conditions: 1, 3 and 10 mg/kg intraperitoneally for 3 days
Experimental: Specifically, 80 mg/kg TNBS was diluted in 50% ethanol and injected into the anus of rats, and punicalagin (1, 3, and 10 mg/kg) was intraperitoneally injected for 3 days. As control groups, a group which was intraperitoneally injected with PBS and treated with 50% ethanol only (n=3) and a group which was intraperitoneally injected with PBS and was treated only with TNBS (n=3) were established, and weight change was measured. After 3 days, the rats of each group were sacrificed, the colon was extracted to measure the length, and the spleen was extracted and weighed.

[6] = target: T1, PAR2; assay: Increase of intracellular calcium ions by PAR2-AP in HT-29 cells (Fluo4-NW); format: cell-based; set-up: endogenous in cells; host or cells: HT-29 colon cancer cells; conditions: HT-29 cells
Experimental: After colon cancer cells (HT-29) were cultured for 48 hours in a 96-well micro plate with the RPMI1640 culture medium, the culture medium was removed, and then, 100 μL of the Flou4-NW dye mixture was added. While blocking the light, it was stabilized for 1 hour such that a calcium ion dye (Ca^2+ dye) was loaded into the cells. Next, after treating punicalin (0, 3, 10, and 30 μM), punicalagin (0, 0.3, 1, 2, 3, and 10 μM), or ellagic acid (0, 30, and 100 μM) for 10 minutes by concentration, each well was treated with 30 μM PAR2-AP (PAR2-activating peptide, SLIGRL-NH2) to measure the concentration change in intracellular calcium ions.

[7] = Weight change of wild-type mice; format: in vivo; conditions: 10 mg/kg intraperitoneally at 2-day intervals
Experimental: In order to determine the toxicity of punicalagin, the effect of NIH3T3 cells on cell viability and the weight change of 8-week-old wild-type mice were evaluated, and the heart, liver, and lung were extracted from 30-week-old lupus mice and were histologically evaluated by performing hematoxylin-eosin staining.

[8] = system: conjunctival epithelial cells; assay: IL-6 secretion by house dust mite (HDM) in conjunctival epithelial cells (enzyme immunoassay); format: cell-based, human; conditions: 10 μg/mL HDM 24 hours
Experimental: Next, conjunctival epithelial cells showing a high response to the concentration increase of intracellular calcium ions by HDM and PAR2-AP were treated with 1, 3, and 10 μM punicalagin, and after treating with 10 μg/mL HDM for 24 hours, secreted IL-6 cytokines were measured by enzyme immunoassay. As a result, it was confirmed that 1, 3, and 10 μM punicalagin inhibited about 50, 91, and 93% of IL-6 cytokines that were increased by HDM, respectively (panel C of FIG. 5).

O=CC1OC(=O)c2cc(O)c(O)c(O)c2-c2c(cc(O)c(O)c2O)C(=O)OC1C1OC(=O)c2cc(O)c(O)c(O)c2-c2c(O)c(O)c3oc(=O)c4c(c(O)c(O)c5oc(=O)c2c3c54)-c2c(cc(O)c(O)c2O)C(=O)OCC1O (centres unmarked) [punicalagin, 1,2,3,11,12,13-hexahydroxy-5,10-dioxo-8-[3,4,5,11,17,18,19,22,23,34,35-undecahydroxy-8,14,26,31-tetraoxo-9,13,25,32-tetraoxaheptacyclo[25.8.0.0^2,7.0^15,20.0^21,30.0^24,29.0^28,33]pentatnaconta-1(35),2,4,6,15,17,19,21,23,27,29,33-dodecaen-10-yl]-5,7,8,10-tetrahydrodibenzo[f,h][1,4]dioxecin-7-carbaldehyde]
activity against carbonic anhydrase [1]: inhibitory activity | suppression of the number of scratches caused by DNFB, measured for 30 minutes [2]: about 60% | atopic dermatitis (skin inflammation) ([2]; 0.15% DNFB): significantly reduced | toxicity [3]: no toxicity | inhibition of increase in concentration of intracellular calcium ions ([4]; 100 nM trypsin, 100 μM PAR1-AP, 10 unit/mL thrombin or 100 μM ATP, increasing punicalagin concentration): effect of inhibiting an increase in the concentration of calcium ions was also improved | selectivity for inhibition of PAR2 activity compared to ATP, thrombin, and PAR1-AP ([4]; calcium increase): ≥ 10 times | colon tissue damage caused by TNBS [5]: inhibited colon tissue damage caused by TNBS in a concentration-dependent manner | concentrations of inflammatory cytokines (INF-γ, IL-2, IL-4, IL-6, IL-β, TNF-α, IL-1β, etc.) increased by TNBS [5]: significantly decreased | colon length reduction by TNBS ([5]; concentration-dependent): significantly inhibited | weight increase of the spleen by TNBS ([5]; concentration-dependent): significantly inhibited | weight loss by TNBS ([5]; concentration-dependent): significantly inhibited | IC50 ([6]; 30 μM PAR2-AP, 10 minutes pretreatment, read-out: IC50, inhibition of the PAR2 receptor (intracellular calcium increase by PAR2-AP)): 1450 nM | strength of PAR2 receptor inhibition compared to punicalin ([6]; PAR2-AP): ≥ 10 times | weight change in wild-type mice [7]: no weight change | inhibition of IL-6 cytokines increased by HDM ([8]; 1 μM): about 50% | inhibition of IL-6 cytokines increased by HDM ([8]; 3 μM): ~91% | inhibition of IL-6 cytokines increased by HDM ([8]; 10 μM): ~93%
